# From patent US20250197485A1, “Anti-ED-A Antibodies for the Treatment of Pulmonary Hypertension” (Universitätsklinikum Jena, priority 2022, published 2025)
# Tests used:
# MCT-induced PH [1] = assay: Right heart catheterization (RVPsys) in mouse model of MCT-induced PH; format: in vivo, C57BL/6 mice; settings: day 28; F8 IgG 195 μg i.v. day 14, 16, 18 (p=0.010); MAC 15 mg/kg per os once daily day 14-28 (n.s.)
# Excerpt: PH was induced in C57BL/6 mice (bodyweight: 25-30 g). The animals were obtained from ZET facility (Zentale Experimentelle Tierhaltung) of the University Hospital Jena (UKJ, Jena, Germany). Prior to PH induction, mice were allowed to acclimatize for at least 7 days with ad libitum access to food and water as well as controlled light/dark cycles. 41 animals were investigated divided into the following five experimental groups: • 1) sham induced controls (n=7) • 2) MCT induced PH (n=12) • 3) MCT induced PH+MAC (n=6) • 4) MCT induced PH+F8 IgG (n=8) • 5) MCT induced PH+KSF IgG (n=8)
# For PH induction, the Monocrotaline (MCT, Carl Roth, Germany) method was used.
# The sham induced controls were injected with 30 μl NaCl not containing MCT at day 1 (single dose; intraperitoneally, i.p.). […] The other 4 experimental groups were injected with MCT to induce PH (single dose; intraperitoneally, i.p.; 60 mg/kg body weight; volume 30 μl). Animals in the MCT induced PH+MAC group received the drug (Macitentan, Actelion Pharmaceuticals Ltd.) from day 14 to day 28 (once daily; per os; 15 mg/kg body weight). Animals in the MCT induced PH+F8 IgG group received F8 IgG 3 times on day 14, 16 and 18 (intravenously, i.v.; 195 μg/injection; volume 200 μl). Similarly, animals in the MCT induced PH+KSF IgG group received KSF IgG 3 times on day 14, 16 and 18 (intravenously, i.v.; 195 μg/injection; volume 120 μl).
# On day 28 after MCT injection, mice of all experimental groups were deeply anesthetized with a single dose of 100 mg/kg body weight ketamine and 10 mg/kg body weight Xylazin in approximately 60 μl each administered i.p.
# Right heart catheterization using a 1.4 F micro conductance pressure-volume catheter (Model SPR-839; Millar Instruments Inc; PowerLab system, ADInstruments Ltd., Oxford, UK) was performed via the right vena jugularis interna to measure the systolic right ventricular pressure and thereby verify the success of the experimental setting. Mice were then sacrificed in deep anesthesia and analgesia to carry out cardiac blood collection after thoracotomy and to harvest the organs.
# Statistical analyses were performed using IBM SPSS statistical software, version 28.0 (IBM SPSS Statistics for Windows. Armonk, NY, USA). Data are expressed as mean±standard deviation. Kruskal-Wallis and Mann-Whitney-U test were used to test for significant differences between the different groups. A p-value<0.05 as statistically significant.
# MCT-induced PH [2] = assay: Histological evaluation of lung tissue damage (sum-score) in mouse model of MCT-induced PH; format: in vivo, C57BL/6 mice; settings: MAC p=0.020; F8 IgG p=0.005; KSF IgG p=0.907
# Excerpt: PH was induced in C57BL/6 mice (bodyweight: 25-30 g). The animals were obtained from ZET facility (Zentale Experimentelle Tierhaltung) of the University Hospital Jena (UKJ, Jena, Germany). Prior to PH induction, mice were allowed to acclimatize for at least 7 days with ad libitum access to food and water as well as controlled light/dark cycles. 41 animals were investigated divided into the following five experimental groups: • 1) sham induced controls (n=7) • 2) MCT induced PH (n=12) • 3) MCT induced PH+MAC (n=6) • 4) MCT induced PH+F8 IgG (n=8) • 5) MCT induced PH+KSF IgG (n=8) For PH induction, the Monocrotaline (MCT, Carl Roth, Germany) method was used. The sham induced controls were injected with 30 μl NaCl not containing MCT at day 1 (single dose; intraperitoneally, i.p.). […] The other 4 experimental groups were injected with MCT to induce PH (single dose; intraperitoneally, i.p.; 60 mg/kg body weight; volume 30 μl). Animals in the MCT induced PH+MAC group received the drug (Macitentan, Actelion Pharmaceuticals Ltd.) from day 14 to day 28 (once daily; per os; 15 mg/kg body weight). Animals in the MCT induced PH+F8 IgG group received F8 IgG 3 times on day 14, 16 and 18 (intravenously, i.v.; 195 μg/injection; volume 200 μl). Similarly, animals in the MCT induced PH+KSF IgG group received KSF IgG 3 times on day 14, 16 and 18 (intravenously, i.v.; 195 μg/injection; volume 120 μl). Microscopic evaluation to assess histopathological lung tissue damage was performed using H&E as well as Sirius Red stained lung tissue sections according to a defined sum-score (between 0 and 12; maximum score value=highest level of tissue damage) integrating certain histological alterations frequently occurring in PH: percentage of atelectasis area, percentage of emphysema area, degree of media hypertrophy of peribronchial arteries, presence of perivascular cellular edema of peribronchial arteries, and degree of media hypertrophy of small arteries. Statistical analyses were performed using IBM SPSS statistical software, version 28.0 (IBM SPSS Statistics for Windows. Armonk, NY, USA). Data are expressed as mean±standard deviation. Kruskal-Wallis and Mann-Whitney-U test were used to test for significant differences between the different groups. A p-value<0.05 as statistically significant.
Molecule,attenuation in RVPsys compared to the MCT-induced PH group without treatment (positive control) (MCT-induced PH [1]),histopathological lung tissue damage (sum-score 0 to 12) compared to the MCT-induced PH group without treatment (MCT-induced PH [2])
"CCCNS(=O)(=O)Nc1ncnc(OCCOc2ncc(Br)cn2)c1-c1ccc(Br)cc1 [MAC, Macitentan, reference compound]",not significant,significantly reduced
"KSF IgG: Negative control chimaeric antibody specific for hen egg lysozyme, an irrelevant antigen; heavy chain SEQ ID NO: 15, light chain SEQ ID NO: 16 [reference compound]",,No reduction
